US11999704B1, “1-(2-hydroxybenzylideneamino)-5-phenylimidazolidine-2,4-dione as an antimicrobial compound” (KING FAISAL UNIVERSITY, priority 2023, dated 2024)

How the values were obtained:
Staphylococcus aureus = test: Agar plate disc-diffusion, antibacterial activity (inhibition zone); format: cell-based; conditions: nutrient agar, 37° C., 48 hours, DMSO zone subtracted; for inhibition zone, Staphylococcus aureus, A: A = concentration of comp. = 10,000 μL; for inhibition zone, Staphylococcus aureus, B: B = concentration of comp. = 30.000 μL; for inhibition zone, Staphylococcus aureus, C: C = concentration of comp. = 50,000 μL
Experimental: (§1) The agar plate disc-diffusion method was applied. Sterilized filter papers (6 mm in diameter) were wetted with 10 μL of a solution of 1-(2-hydroxybenzylideneamino)-5-phenylimidazolidine-2,4-dione (4) to be tested, containing 10 mg/mL in DMSO, and the discs were allowed to air dry. The discs were then placed onto the surface of agar plates (nutrient agar for bacteria and Sabouraud's dextrose agar for fungi) seeded with the test organism. Each plate contained 15 mL of the agar medium, previously seeded with 0.2 mL of the broth culture of each organism pregrown for 18 hours. The plates were incubated at 37° C. for 48 hours, and 72 hours for fungi. The inhibition zones was measured in millimeter. Discs impregnated with DMSO were used as a control, and its inhibition zone was subtracted from the tested compound actual inhibition zone.
(§2) The results of the antimicrobial testing can be observed in Tables 1 and 2, below, with ciprofloxacin serving as a reference.

Escherichia coli = test: as above; format: cell-based; conditions: nutrient agar, 37° C., 48 hours, DMSO zone subtracted; for inhibition zone, Escherichia coli, A: A = concentration of comp. = 10,000 μL; for inhibition zone, Escherichia coli, B: B = concentration of comp. = 30.000 μL; for inhibition zone, Escherichia coli, C: C = concentration of comp. = 50,000 μL
Experimental: as §1, §2

Pseudomonas aeruginosa = test: as above; format: cell-based; conditions: nutrient agar, 37° C., 48 hours, DMSO zone subtracted; for inhibition zone, Pseudomonas aeruginosa, A: A = concentration of comp. = 10,000 μL; for inhibition zone, Pseudomonas aeruginosa, B: B = concentration of comp. = 30.000 μL; for inhibition zone, Pseudomonas aeruginosa, C: C = concentration of comp. = 50,000 μL
Experimental: as §1, §2

Bacillus Cereus = test: as above; format: cell-based; conditions: nutrient agar, 37° C., 48 hours, DMSO zone subtracted; for inhibition zone, Bacillus Cereus, B: B = concentration of comp. = 30.000 μL; for inhibition zone, Bacillus Cereus, C: C = concentration of comp. = 50,000 μL
Experimental: as §1, §2

[1] = tested on: Chrysosporium keratinophilum; test: Agar plate disc-diffusion, antifungal activity (inhibition zone); format: cell-based; conditions: Sabouraud's dextrose agar, 37° C., 72 hours, DMSO zone subtracted; for inhibition zone, Chrysosporium keratinophilum, A: A = concentration of comp. = 10,000 μL; for inhibition zone, Chrysosporium keratinophilum, B: B = concentration of comp. = 30.000 μL; for inhibition zone, Chrysosporium keratinophilum, C: C = concentration of comp. = 50,000 μL
Experimental: as §1, §2

Aspergillus flavus = test: as above; format: cell-based; conditions: Sabouraud's dextrose agar, 37° C., 72 hours, DMSO zone subtracted; for inhibition zone, Aspergillus flavus, A: A = concentration of comp. = 10,000 μL; for inhibition zone, Aspergillus flavus, B: B = concentration of comp. = 30.000 μL; for inhibition zone, Aspergillus flavus, C: C = concentration of comp. = 50,000 μL
Experimental: as §1, §2

melting point [°C]	SMILES	inhibition zone, Staphylococcus aureus, A (Staphylococcus aureus) [millimeter]	inhibition zone, Staphylococcus aureus, B (Staphylococcus aureus) [millimeter]	inhibition zone, Staphylococcus aureus, C (Staphylococcus aureus) [millimeter]	inhibition zone, Escherichia coli, A (Escherichia coli) [millimeter]	inhibition zone, Escherichia coli, B (Escherichia coli) [millimeter]	inhibition zone, Escherichia coli, C (Escherichia coli) [millimeter]	inhibition zone, Pseudomonas aeruginosa, A (Pseudomonas aeruginosa) [millimeter]	inhibition zone, Pseudomonas aeruginosa, B (Pseudomonas aeruginosa) [millimeter]	inhibition zone, Pseudomonas aeruginosa, C (Pseudomonas aeruginosa) [millimeter]	inhibition zone, Bacillus Cereus, A (Bacillus Cereus) [millimeter]	inhibition zone, Bacillus Cereus, B (Bacillus Cereus) [millimeter]	inhibition zone, Bacillus Cereus, C (Bacillus Cereus) [millimeter]	inhibition zone, Chrysosporium keratinophilum, A [1] [millimeter]	inhibition zone, Chrysosporium keratinophilum, B [1] [millimeter]	inhibition zone, Chrysosporium keratinophilum, C [1] [millimeter]	inhibition zone, Aspergillus flavus, A (Aspergillus flavus) [millimeter]	inhibition zone, Aspergillus flavus, B (Aspergillus flavus) [millimeter]	inhibition zone, Aspergillus flavus, C (Aspergillus flavus) [millimeter]
	O=C(O)c1cn(C2CC2)c2cc(N3CCNCC3)c(F)cc2c1=O [Cip., ciprofloxacin, reference compound]	43	44	53	30	39	60	29	30	53	29	30	42	29	30	53	29	30	42
161 to 163	O=C1NC(=O)N(/N=C/c2ccccc2O)C1c1ccccc1 (stereo not shown) [Compound 4, 1-(2-hydroxybenzylideneamino)-5-phenylimidazolidine-2,4-dione]	15	19	27	27	36	49	20	26	37	23	27	35	27	29	48	24	28	38
